The test system of the assay is Normal human primary fibroblasts. Put plainly: Fibronectin release by UV-irradiated normal human primary fibroblasts (Human Magnetic Luminex Assay). Type of assay: cell-based. The procedure:
Normal human primary fibroblasts were seeded in culture well plates at 200,000 cells/cm^2 with DMEM (Dulbecco's Modified Eagle Medium) culture medium. 24 hours later, culture medium was removed, cells were rinsed with PBS (Phosphate Buffered Saline), and fresh PBS was applied to the cells. Cells were then exposed to UV irradiation (from 300 to 400 nm) for a time to cause physical and/or chemical UV-induced change, without exposure to active ingredients. Immediately after irradiation, PBS was removed and the active ingredients creatine, palmitoylTripeptide-5 (Lys-Val-Lys) and bifida ferment lysate diluted in culture medium were applied for 72 hours. Cells were incubated at +37° C. with 5% CO2.
Quantification of fibronectin release was performed by using Human Magnetic Luminex Assays (ref: LXSAHM-03) according to the protocol described by the supplier. Results were expressed in pg/ml.

As to `CN(CC(=O)O)C(=N)N` [Creatine], the “effect on fibronectin production/levels (in words)” value (UV-irradiated fibroblasts, 72 hours treatment, FIG. 1) is reported as “does not appear to exert a positive impact”. As for palmitoylTripeptide-5 (Lys-Val-Lys), where the note is “UV-irradiated fibroblasts, 72 hours treatment”, the “increase in fibronectin production over either no treatment or creatine treatment alone” value was found to be 36.9%. Besides, the “fibronectin production in irradiated cells” value (fibroblasts exposed to UV (300 to 400 nm), then actives in culture medium for 72 hours) came out at 550K.

(Values after patent US20250213463A1, “TOPICAL COMPOSITION AND USES THEREOF” (COTY INC., priority 2021, published 2025).)
